Assay results from paper PMC8174488, “4-Arylthiosemicarbazide derivatives as a new class of tyrosinase inhibitors and anti-Toxoplasma gondii agents” (Journal of Enzyme Inhibition and Medicinal Chemistry, 2021).

Experiments:
L929 cells = experiment: Cell viability assay (MTT, ISO 10993-5) on L929 mouse fibroblasts; format: cell-based; conditions: 24 h, concentration for 30% inhibition of cell proliferation
Source text: First, we evaluated the cytotoxic effects of 1b–9b, which is necessary prior to measuring anti-Toxoplasma and Tyr inhibition in order to exclude cytotoxic compounds. […] Cytotoxicity was estimated using mouse fibroblast (L929) cells line via MTT assay, according to the international standards ISO 10993–5:2009(E). […] Therefore, the obtained results were expressed as CC30, which was defined as the highest concentration of the compound that causes 30% damage of cells and was considered according to ISO as non-toxic.
The L929 mouse fibroblast (ATTC® CCL-1™, Manassas, VA) was routinely maintained in RPMI 1640 media (R8758, Sigma-Aldrich, Suffolk, UK), supplemented with 10% foetal bovine serum (Foetal Bovine Serum, ATCC® 30–2020™), 100 I.U./mL penicillin and 100 µg/mL streptomycin (Penicillin-Streptomycin Solution ATCC® 30–2300™). Cells were trypsinised (Trypsin-EDTA Solution, 1X ATCC® 30–2101™) twice a week and seeded at a density of 1 × 10^6 per T25 cell culture flask and incubated at 37 °C and 10% CO2 to achieve a confluent monolayer.
Cell viability assay was performed according to international standards (ISO 10993–5:2009(E)), using tetrazolium salt (MTT, Sigma-Aldrich) and mouse fibroblasts L929 cells. Culture medium RPMI 1640, without phenol red (Biowest, Nuaille, France) supplemented with 10% FBS, 2 mM L-glutamine (Sigma-Aldrich), 100 I.U./mL penicillin, 100 µg/mL streptomycin were used. Briefly, 1 × 10^4/well of L929 cells were placed in 96-well plates and incubated for 24 h at 37 °C and 10% CO2. Afterwards, the old culture medium was replaced with 100 µL of the compound, drug or inhibitor, diluted in culture medium, and the cells treated for 24 h. Additionally, cells were treated with 0.03–4.0% concentration of DMSO as the solvent (data not shown). Then, 50 µL of 1 mg/mL of MTT solution in RPMI 1640 without phenol red was added to each well and incubated for 2 h at 37 °C and 10% CO2. Next, cell culture medium was aspirated carefully and 150 µL of DMSO was added to each well, and the plates were gently mixed. Then, 25 µL 0.1 M glycine buffer (pH 10.5) (Sigma-Aldrich) was added. The optical density at 570 nm using a multi-mode microplate reader SpectraMax® i3 (Syngen, Taipei City, Taiwan) was recorded. The results were expressed as a percentage of viability compared to untreated cells. All experiments were performed in triplicate. Cytotoxicity assay using human fibroblast Hs27 cells was also performed as described above (included in Supplementary Material).

T. gondii RH strain = experiment: Antiparasitic assay: T. gondii RH proliferation in Hs27 cells, [3H]uracil incorporation; format: cell-based, Toxoplasma gondii
Toxoplasma gondii = Toxoplasma gondii proliferation; cited from earlier work

## COc1cc(Cc2cnc(N)nc2N)cc(OC)c1OC [Trimethoprim (TRI), Trimethoprim, reference compound]
L929 cells
  CC30: 61.25 µM
T. gondii RH strain; Toxoplasma gondii, HS27
  IC50: 50.9 µM
T. gondii RH strain; ratio of CC30 (L929) to IC50Tg
  SR (selectivity ratio): 1.20
Toxoplasma gondii
  IC50: 50.9 µM
